Experimental data: patent US8765787B2, “Methods of treatment of xerophthalmia with self-preserving ocular formulations of norketotifen” (Bridge Pharma, Inc., priority 2008, dated 2014)
In brackets after ≈: the same amount, converted by molar mass. Like-named read-outs stand apart in the source and are kept apart here.

What was measured:
[1] = Solubility of norketotifen (saturated solutions, HPLC); format: physicochemical; details: for solubility: thermodynamic from solid
Procedure: Saturated solutions of norketotifen were prepared at room temperature by stirring, overnight sonication and filtering of the saturated supernatant solutions. An HPLC method for the determination of concentrations of norketotifen was developed:
The HPLC system was a HP 1050 with a variable wavelength detector. […] The relative standard deviation was approximately 0.3 percent for the main peak area.

[2] = Stability of norketotifen formulations; format: physicochemical; details: pH 6.5; accelerated testing (55° C.)
Procedure: Stability of norketotifen formulations was studied after incubation at various temperatures, acidity and time intervals. The concentrations of norketotifen were measured after incubation periods of various lengths.

[3] = tested on: rabbit eyes; assay: Ocular irritation test; format: in vivo, New Zealand White rabbits; details: excipient-free solution 0.0345% in water or saline; rabbit eye, seven instillations of 0.1 ml
Procedure: New Zealand White rabbits, weighing 2 to 4 kilograms were used. Test formulation, in volumes of 0.1 ml were instilled into the conjunctival sac of six rabbit eyes of groups. Said volume of each formulation was repeatedly instilled every 30 minutes for 3 hours (a total of seven instillation into the eyes of rabbits. Ocular irritation was scored according to both Draize et al., 1944 and Kay and Calandra, 1962. Scorings were performed before each instillation and 30 minutes, 3 hours and 24 hours after the last instillation.
The formulations of norketotifen in Table 7 were prepared and tested and the results were compared with irritation by norketotifen in excipient-free solutions. […] In the present study, norketotifen HF was dissolved to an intended concentration of 0.276 percent in the various solutions, using stirring and over-night sonication at room temperature. After sonication, all solutions were filtered through a 0.45 μm non-pyrogenic MILLEX® HV filter unit before being used for ocular tests. Thus, all of the solutions used for the ocular irritation tests in Table 7 contained the highest possible concentrations of norketotifen HF.
Solutions of norketotifen were similarly prepared in excipient-free solutions containing only norketotifen HF 0.0345 percent by weight, dissolved in water or in saline, and filtered as described above. […]

[4] = target: T1, H-1 (Rattus norvegicus, UniProt P31390); assay: Antihistaminic (H-1) activity in vivo after oral administration (histamine wheal); design: species or system rats; details: for Histamine (wheal area): 60 min before intradermal histamine; for Saline (wheal area): intradermal histamine vehicle
T1 construct: two intradermal injections of histamine; from tissue; host or cells: dorsal skin of live male rats (in vivo)
Procedure: Male rats (150-200 g) were starved overnight and twelve hours after dorsal depilation, the animals were dosed orally with the test compound(s). Four dorsal test areas were marked with permanent ink. Exactly 60 min after the dosing of the test compound, two intradermal injections of histamine (50 microliter; 1.0 mg/ml of histamine di-HCl) were performed, one on each side on the back of the animal. Two intradermal injections of the vehicle for the histamine solution were also performed. Evans blue dye (20 mg/kg) was injected iv 1 minute prior to the intra-dermal injections of histamine and the histamine vehicle. Twenty minutes were allowed for the wheal response to fully develop, whereupon the animals were euthanized and the dorsal skin containing the intradermal wheals was deflected. The blue spotted areas were measured in square millimeters and the duplicate vehicle wheal responses were averaged. […] The inhibition was calculated in percent difference from the corresponding vehicle baseline value.

[5] = tested on: human granulocytes (buffy coat); assay: Inhibition of histamine release from granulocytes (A23187-induced granulocyte activation); format: cell-based; details: for IC50: 20 min, A23187 (5 μM), 20 min/37° C.
Procedure: In the present studies, effects on granulocyte activation was studied as inhibition of histamine release from human granulocytes (buffy coat) by norketotifen. The method is a modification of the method described by Nolte, H. et al., 1988. Granulocytes were obtained from human volunteers and mediator release was induced by incubation (20 min/37° C.) with the calcium ionophore A23187 (5 μM) in the presence or absence of a test article. Histamine was selected as an indicator for mediator release because of the ease with which histamine can be analyzed, using commercially available kits. The test articles were evaluated, in duplicate, at five concentrations and IC50-values were calculated.
The calcium ionophore A23187 was used to increase intracellular calcium concentration of the granulocytes.

[6] = water, read-out: water solubility

T1 sequence (P31390 whole entry): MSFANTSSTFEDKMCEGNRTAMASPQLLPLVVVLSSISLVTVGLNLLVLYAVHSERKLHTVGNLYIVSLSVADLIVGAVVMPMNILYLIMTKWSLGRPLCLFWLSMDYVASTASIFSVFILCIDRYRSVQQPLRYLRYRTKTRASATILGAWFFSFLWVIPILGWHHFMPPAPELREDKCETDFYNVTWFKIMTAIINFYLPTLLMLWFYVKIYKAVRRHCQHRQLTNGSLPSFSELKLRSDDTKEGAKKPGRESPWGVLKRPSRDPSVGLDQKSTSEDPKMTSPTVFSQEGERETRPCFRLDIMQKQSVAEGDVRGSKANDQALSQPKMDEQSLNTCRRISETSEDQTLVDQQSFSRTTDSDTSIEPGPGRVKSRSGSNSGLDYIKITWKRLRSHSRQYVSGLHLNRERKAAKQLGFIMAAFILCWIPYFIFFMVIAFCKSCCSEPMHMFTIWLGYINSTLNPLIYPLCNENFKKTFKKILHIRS

O=C1Cc2ccccc2C(=C2CCNCC2)c2ccsc21 [norketotifen FB]
solubility of free base in non-aqueous solvents ([1]; propylene glycol, glycerin, ethanol and isopropyl alcohol): can be dissolved

O=C1Cc2ccccc2C(=C2CCNCC2)c2ccsc21 [norketotifen]
soluble in polyethylene glycol (PEG 300) ([1]; PEG 300): up to 0.15 percent w/w
solubility ([1]; pH 8.6, aqueous buffer, read-out: solubility of norketotifen in water): 2100 µg/mL (≈ 7.11 mM)
solubility ([1]; pH 8.75, aqueous buffer, read-out: solubility of norketotifen in water): ~1000 µg/mL (≈ 3.39 mM)
soluble in propylene glycol ([1]; propylene glycol): up to 1.0 percent by weight
solubility ([1]; propylene glycol, organic solvent or mixture, read-out: solubility of norketotifen in propylene glycol): ~10000 µg/mL (≈ 33.9 mM)
can be dissolved in water ([1]; water): up to 0.216 percent by weight
solubility [1, 6]: ~2160 µg/mL (≈ 7.31 mM)
stability in solution formulations [2]: not stable
ocular irritation (Draize; Kay and Calandra scoring) [3]: caused irritation
inhibition at 1 mg/kg ([4]; rat, po): 6%
inhibition at 10 mg/kg ([4]; rat, po): 83%
inhibition at 50 mg/kg ([4]; rat, po): 100%
absorption after oral administration ([4]; rats, oral): well absorbed
antihistaminic potency relative to diphenhydramine ([4]; rats, oral): more potent than the reference compound
Histamine effect ([4]; rats, oral, 1 mg/kg): 92 mm^2
Histamine (wheal area) ([4]; rats, oral, 1 mg/kg): 114 ± 8 mm^2
Saline (wheal area) ([4]; rats, oral, 1 mg/kg): 22 ± 1 mm^2
Histamine effect ([4]; rats, oral, 10 mg/kg): 17 mm^2
Histamine (wheal area) ([4]; rats, oral, 10 mg/kg): 39 ± 2 mm^2
Saline (wheal area) ([4]; rats, oral, 10 mg/kg): 22 ± 1 mm^2
Histamine effect ([4]; rats, oral, 50 mg/kg): 0 mm^2
Histamine (wheal area) ([4]; rats, oral, 50 mg/kg): 10 ± 1 mm^2
Saline (wheal area) ([4]; rats, oral, 50 mg/kg): 12 ± 1 mm^2
antihistaminic activity relative to ketotifen ([4]; tested in vivo (Example 12)): about half of that of ketotifen
IC50 [5]: 9.2 µM
activity relative to ketotifen in inhibiting granulocyte activation (anti-inflammatory) ([5]; A23187-induced): about ten times more potent than ketotifen

CN1CCC(=C2c3ccccc3CC(=O)c3sccc32)CC1 [ketotifen]
solubility [1, 6]: ~12500 µg/mL (≈ 40.4 mM)
IC50 [5]: 91 µM
